In brackets after ≈: the same amount, converted by molar mass.
Experiments:
[1] = in vitro; details: BEND-3 endothelial cells expressing VEGF receptor
Protocol: Bovine endothelial cells (BEND-3) expressing vascular endothelial growth factor (VEGF) receptor were incubated (37° C., 6 hours) in the growth medium containing 0.03–90 microgram/mL of the free (i.e. non-encapsulated) vinorelbine, or vinorelbine encapsulated in the Ni-NTA-PEG-DSPE liposomes with or without 0.02 mg/niL of the intemalizing anti-VEGER scFv antibody 4G7 having a hexahistidine tag and a terminal cysteine group. The cells were post-incubated in the growth medium without the drug for another 72 hours, and the viability of the cells was determined by a conventional tetrasolium (MTT) assay.

[2] = Methotrexate encapsulation by reverse phase evaporation (direct sequestration) and leakage; assay type: physicochemical

Row | Compound | IC50 at 6 h [1] [µg/mL] | MTX loading efficiency [2]
1 | CN(Cc1cnc2nc(N)nc(N)c2n1)c1ccc(C(=O)N[C@@H](CCC(=O)O)C(=O)O)cc1 [free methotrexate, methotrexate] | > 90 | 28.7–29.5%
2 | CCC1=C[C@@H]2CN(C1)Cc1c([nH]c3ccccc13)[C@@](C(=O)OC)(c1cc3c(cc1OC)N(C)[C@H]1[C@@](O)(C(=O)OC)[C@H](OC(C)=O)[C@]4(CC)C=CCN5CC[C@]31[C@@H]54)C2 [free vinorelbine, vinorelbine] | 0.67 (≈ 0.86 µM) | –

From patent publication US7045283B2, “Methods of high-throughput screening for internalizing antibodies” (The Regents of the University of California, priority 2000, dated 2006)
